These results are taken from patent US12157713B2, “Conjugated oligoelectrolytes as antimicrobial agents” (Nanyang Technological University, priority 2018, dated 2024).

Structures are written as SMILES.

Data set [1] deals with Enterococcus faecalis OG1RF. Nature of the data set: MIC by broth microdilution against E. faecalis OG1RF. In kind it is cell-based. Conditions: BHI. Here is the method: (§1) The respective minimum inhibition concentration (MIC) of each COE molecule was determined using a broth microdilution method. Briefly, COEs were diluted via a 2-fold dilution series in 100 μL of either Muller Hinton Broth (MHB) for E. coli and S. aureus or Brain Heart Infusion Broth (BHI) for E. faecalis in a 96-well plate to achieve the desired final concentration. Subsequently, each well was inoculated with 100 μL of 1×10^6 colony forming units (CFU) mL^−1 of the respective microorganism in MHB for E. coli or BHI for E. faecalis to achieve an inoculum density of 5×10^5 CFU mL^−1. The plates were then incubated at 37° C. with shaking (200 rpm) for 18 hrs. […] The results were obtained in triplicate.
The MIC values of COE-D4, COE-D6 and COE-D8 against the reference strain E. coli K12, pathogenic E. coli UT189, and the Gram positive pathogen Enterococcus faecalis OG1RF were determined using a broth microdilution method as described in the general method above. The MICs for E. coli K12 were determined to be 128, 16, and 4 μg mL^−1 for COE-D4, COE-D6, and COE-D8, respectively (FIG. 5a). […] This is not surprising as these two organisms differ in the capsular polysaccharides that they expressed, which are known to hinder the uptake of antimicrobials and mitigate their potency (M. A. Campos, et al., Infect. Immun. 2004, 72, 7107-7114). […]
(In general: Broth dilution looks for growth in wells or tubes with falling amounts of substance.)

The subject of data set [2] is Staphylococcus aureus 25923. Nature of the data set: MIC against S. aureus 25923. In kind it is cell-based. The method, then: as §1
(§2) The antimicrobial effects of COE-D62N and COE-D82N were also tested on the Gram-positive Staphylococcus aureus 25923 and Methicillin-resistant Staphylococcus aureus(MRSA BAA-40), in comparison with vancomycin (FIG. 5b).

The subject of data set [3] is MRSA BAA-40. Nature of the data set: Time-kill assay. It is filed as cell-based, Staphylococcus aureus. The settings on record: 32 μg/mL; for Reduction of viability of MRSA BAA-40 compared with vancomycin: FIG. 11a. Here is the method:
A stationary-phase culture of MRSA BAA-40 was diluted to 2×10^8 CFU/mL in fresh MHB. 500 μL of this suspension was then mixed with another 500 μL of MHB containing twice the desired final concentrations of COEs and vancomycin (32 μg/mL). The tube was incubated at 37° C. with 200 rpm shaking. Aliquots were removed at various time points and were serially diluted in PBS, and plated on MHB plates to enumerate CFU/mL.

Data set [4] relates to Methicillin-resistant Staphylococcus aureus (MRSA BAA-40). Nature of the data set: MIC against MRSA BAA-40. In kind it is cell-based. The settings on record: for MIC in comparison with vancomycin: all three strains: E. coli K12, S. aureus 25923, MRSA BAA-40 (FIG. 5b). Here is the method:
as §1, §2

The next data set deals with HepG2 cells. Nature of the data set: Toxicity on HepG2 cells. In kind it is cell-based. The settings on record: Homo sapiens.
The nature of data set [5]: Intrinsic clearance in human. In kind it is in vitro ADME.
Data set [6] concerns MRSA BAA-40. Nature of the data set: Resistance evolution experiment (serial passage). It is filed as cell-based, Staphylococcus aureus. Conditions: for MIC on MRSA BAA-40 during serial passage: from the 5th day onwards, 17 days; for Tendency to cause resistance in the bacteria: serial passage for 17 days. Here is the method:
To evaluate the propensity of COE to induce resistance, a serial passage of MRSA BAA-40 in MHB medium containing 100-fold diluted stationary-phase culture with increasing concentrations of COE was performed.

The test system of data set [7] is Staphylococcus aureus on reconstituted human epidermis (RHE). Nature of the data set: Reconstituted human epidermis skin model inoculated with S. aureus. It is filed as cell-based. Conditions: 10× the MIC of S. aureus. The method, then: Reconstituted human epidermis (RHE) was cultured in multiwell plates on polymer membrane inserts (0.5 cm^2 surface area) using immortalized human keratinocytes (250,000 NTERTS) in CnT prime media (from CellnTec) for 48 hours after which they were transferred to CnT 3D prime media for 24 hours before air lifting. The media was changed every 48 hours thereafter and RHE was grown for at least 7 days. After the stratified layers of the RHE were formed, a standardised inoculum of Staphylococcus aureus was added to RHEs (with the exception of the negative control), followed by the addition of 10× the MIC of S. aureaus of antimicrobial COEs.

The nature of data set [8]: Intrinsic hepatic clearance in mice. It is filed as in vitro ADME.
Data set [9] is described as follows: Aqueous solubility (further tests). It is filed as physicochemical. The settings on record: aqueous medium (not further specified).
For the next data set, the system named is human erythrocytes. Nature of the data set: Haemolysis assay. It is filed as cell-based. Here is the method:
1 mL of mammalian blood, collected from a healthy donor, was mixed with 9 mL of PBS and centrifuged at 1,000 rpm for 5 min. Red blood cell pellet was collected and subsequently washed with PBS three times and diluted to a final concentration of 5% v/v. The various COEs were dissolved in PBS and two folds serial diluted in a 96-well microplate. 50 μL of red blood cell stock was mixed with 50 μL of COE solution in each well and incubated for 1 hr at 37° C. under shaking. The microplate was centrifuged at 1,000 rpm for 10 min. 80 μL aliquots of the supernatant were then transferred to a new 96-well microplate and diluted with another 80 μL of PBS. Haemolytic activity was calculated by measuring absorbance at 540 nm using a 96-well plate spectrophotometer. Triton X-100 (0.1% in PBS), which is able to lyse red blood cells, completely was used as positive control, while PBS was used as negative control. The haemolysis percentage was calculated using the following formula:
[formula] where Op is the absorbance of the COE-treated sample, Ob is the absorbance of negative control and Ot is the absorbance of positive control. Results and Discussions
The selectivity of COEs towards bacteria or mammalian cells can be quantified using the ratio between the concentrations leading to 50% lysis of human erythrocytes (HC50) and the MIC value.

As a reminder, the MIC is the lowest concentration found to suppress growth. Read a high MIC as weaker potency. `C[N+](C)(C)CCCCCCCCOc1ccc(/C=C/c2ccc(OCCCCCCCC[N+](C)(C)C)cc2)cc1` [COE-D8] returned an MIC in data set [1] of 4 µg/mL.

As a reminder, the IC50 is the concentration needed to halve the response being measured. The solubility is how much of the substance goes into solution per volume. As for `CN(C)CC[N+](C)(C)CCCCCCOc1ccc(/C=C/c2ccc(OCCCCCC[N+](C)(C)CCN(C)C)cc2)cc1` [COE-D62N], inhibition of growth in data set [2] (MIC) required 1 µg/mL. Also, the “Reduction of viability of MRSA BAA-40 compared with vancomycin” value with MRSA BAA-40 [3] was “much faster than that of vancomycin”. In data set [4] (Staphylococcus aureus), the MIC turned out to be 1 µg/mL. Moreover, the “MIC in comparison with vancomycin” value in data set [4] was “lower MIC than vancomycin”. The same compound displayed an IC50 in the data set with HepG2 cells above 30 µM. Besides, the “intrinsic clearance in human” value in data set [5] was “good”. Besides, in the data set on MRSA BAA-40 [6], the “MIC on MRSA BAA-40 during serial passage” value was “remained relatively constant” and the “Tendency to cause resistance in the bacteria” value is on record as “low tendency to cause resistance”. The “Skin structure of infected RHE model after treatment” value in data set [7] is on record as “intact skin structure”. In data set [8], the “intrinsic hepatic clearance in mice” value is given as “good”. Further, the solubility in [9] was above 200 µM. Moreover, in the data set with human erythrocytes, the Toxicity towards erythrocytes result is “non-toxic”.

With `CN(C)CC[N+](C)(C)CCCCCCCCOc1ccc(/C=C/c2ccc(OCCCCCCCC[N+](C)(C)CCN(C)C)cc2)cc1` [COE-D82N], in the data set on MRSA BAA-40 [3], the “Time to reduce viability of MRSA close to the minimum” value is at most 2 h and the “Reduction of viability of MRSA BAA-40 compared with vancomycin” value is “much faster than that of vancomycin”. In [4], the “MIC in comparison with vancomycin” value is reported as “lower MIC than vancomycin”. For the same compound, in the data set with MRSA BAA-40 [6], the “MIC on MRSA BAA-40 during serial passage” value is on record as “remained relatively constant” and the “Tendency to cause resistance in the bacteria” value was “low tendency to cause resistance”. The “Skin structure of infected RHE model after treatment” value in [7] was “intact skin structure”.
